Source: paper PMC8445441, “Elucidating the mechanism by which synthetic helper peptides sensitize Pseudomonas aeruginosa to multiple antibiotics” (PLoS Pathogens, 2021)
Like-named read-outs stand apart in the source and are kept apart here. Values belong to the compound of their own block, whether it stands above or below them.

Legend:
[1] = system: P. aeruginosa AUMC-Pa-3; test: microbe, parasite or virus in culture; settings: strain AUMC-Pa-3; for MICac: MIC of the antibiotic in the combination: with D-11 at MICbc 4
Method in brief: (§1)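 Values are lowest concentrations showing no visible growth after 18 h at 37 °C. Drugs were serially halved in MHB and combined with equal volumes of a roughly 1 × 10^6 CFU/mL suspension, following CLSI guidance, in triplicate.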

[2] = system: P. aeruginosa AUMC-Pa-4; test: microbe, parasite or virus in culture; settings: strain AUMC-Pa-4; for MICac: MIC of the antibiotic in the combination: with D-11 at MICbc 4
Method in brief: as §1

[3] = system: P. aeruginosa AUMC-Pa-5; test: microbe, parasite or virus in culture; settings: strain AUMC-Pa-5; for FICI: antibiotic + D-11 (MICb/MICbc 64/4); for MICac: MIC of the antibiotic in the combination: with D-11 at MICbc 4
Method in brief: as §1

[4] = system: P. aeruginosa AUMC-Pa-6; test: microbe, parasite or virus in culture; settings: strain AUMC-Pa-6; for FICI: antibiotic + D-11 (MICb/MICbc 64/4); for MICac: MIC of the antibiotic in the combination: with D-11 at MICbc 4
Method in brief: as §1

[5] = system: P. aeruginosa PAO1; test: microbe, parasite or virus in culture; settings: PAO1; for FICI / MICac: the MIC for the antibiotic in the combination: S3 Table
Method in brief: as §1

[6] = system: P. aeruginosa ATCC27853; test: microbe, parasite or virus in culture; design: MICa: MIC of the antibiotic / MICac: MIC of the antibiotic in the combination: unit not given beside the values; settings: strain ATCC27853; for FICI: antibiotic + D-11 (MICb/MICbc 32/4); for MICac: MIC of the antibiotic in the combination: with D-11 at MICbc 4
Procedure: (§2) The MIC tests were performed in triplicate using broth microdilution in accordance with Clinical and Laboratory Standards Institute (CLSI) recommendations (http://iacld.ir/DL/public/CLSI-2018-M100-S28.pdf). Briefly, drugs were two-fold diluted in MHB and mixed with an equal volume of bacterial suspensions containing approximately 1 × 10^6 CFU/mL in 96-well microliter plate. After 18 h incubation at 37 °C, the MIC values were defined as the lowest concentrations of antibiotics with no visible growth of bacteria. […] Otherwise, 1/4 MIC of the peptide was used in the combination. […] If needed, membrane compounds PG, PE, PC, CL or LPS, or membrane stabilizers MgCl2 or CaCl2, or efflux pumps inhibitor PAβN were added to the broth medium to clarify the effect of other substances on the synergy between peptide and antibiotics. All the tests were performed in triplicate.
(§3) The fractional inhibitory concentration (FIC) indices were calculated using the previously described formula FICI = FICa + FICb = MICac/MICa + MICbc/MICb. The FICI was interpreted according to EUCAST [65] as follows: synergistic, FICI≤0.5; additive, 0.5<FICI≤1; indifferent, 1<FICI<2; antagonistic, FICI ≥2. For the FICI calculations, twice the highest concentration tested was used in the cases where the MIC was not reached.

[7] = system: P. aeruginosa NR-31040; test: microbe, parasite or virus in culture; design: MICa: MIC of the antibiotic / MICac: MIC of the antibiotic in the combination: unit not given beside the values; settings: strain NR-31040; for MICac: MIC of the antibiotic in the combination: with D-11 at MICbc 4
Procedure: as §2, §3

[8] = system: P. aeruginosa NR-31041; test: microbe, parasite or virus in culture; design: MICa: MIC of the antibiotic / MICac: MIC of the antibiotic in the combination: unit not given beside the values; settings: strain NR-31041; for FICI: antibiotic + D-11 (MICb/MICbc 64/4); for MICac: MIC of the antibiotic in the combination: with D-11 at MICbc 4
Procedure: as §2, §3

[9] = system: P. aeruginosa PA14; test: microbe, parasite or virus in culture; design: MICa: MIC of the antibiotic / MICac: MIC of the antibiotic in the combination: unit not given beside the values; settings: strain PA14; for MICac: MIC of the antibiotic in the combination: with D-11 at MICbc 4
Procedure: as §2, §3

[10] = system: P. aeruginosa PAK; test: microbe, parasite or virus in culture; design: MICa: MIC of the antibiotic / MICac: MIC of the antibiotic in the combination: unit not given beside the values; settings: strain PAK; for FICI: antibiotic + D-11 (MICb/MICbc 64/4); for MICac: MIC of the antibiotic in the combination: with D-11 at MICbc 4
Procedure: as §2, §3

[11] = system: P. aeruginosa HM-214; settings: strain HM-214; antibiotic + D-11 (MICb/MICbc 128/4)
Procedure: as §2, §3

[12] = system: P. aeruginosa AUMC-Pa-1; settings: strain AUMC-Pa-1; antibiotic + D-11 (MICb/MICbc 128/4)
Procedure: as §2, §3

[13] = system: P. aeruginosa AUMC-Pa-2; settings: strain AUMC-Pa-2; antibiotic + D-11 (MICb/MICbc 64/4)
Procedure: as §2, §3

[14] = system: clinical P. aeruginosa isolates; test: microbe, parasite or virus in culture; settings: Pseudomonas aeruginosa, 18 h, antibiotic alone
Method in brief: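 MIC is the lowest drug concentration showing no visible growth after 18 h at 37 °C. Two-fold dilutions in MHB were combined with an equal volume of bacterial suspension (about 1 × 10^6 CFU/mL), following CLSI broth microdilution, in triplicate.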

[15] = antibiotic + D-11 (MICb/MICbc 128/4)
[16] = antibiotic alone, unit not given

MICa: MIC of the antibiotic [1, 16]: 16 | MICac: MIC of the antibiotic in the combination ([1]; unit not given): 1 | MICa: MIC of the antibiotic [2, 16]: 32 | MICac: MIC of the antibiotic in the combination ([2]; unit not given): 4 | MICa: MIC of the antibiotic [3, 16]: 16 | MICac: MIC of the antibiotic in the combination ([3]; unit not given): 8 | MICa: MIC of the antibiotic [4, 16]: 16 | MICac: MIC of the antibiotic in the combination ([4]; unit not given): 8 | MIC ([5]; Pseudomonas aeruginosa, PAO1, 18 h, read-out: MICa: the MIC of antibiotics, S3 Table, antibiotic alone): 8 µM | MICac: the MIC for the antibiotic in the combination ([5]; with 2 μM D-11): 1 µM | MICac: the MIC for the antibiotic in the combination ([5]; with 4 μM D-11): 0.25 µM | MICa: MIC of the antibiotic [6, 16]: 8 | MICac: MIC of the antibiotic in the combination ([6]; unit not given): 4 | MICa: MIC of the antibiotic [7, 16]: 4 | MICac: MIC of the antibiotic in the combination ([7]; unit not given): 1 | MICa: MIC of the antibiotic [8, 16]: 64 | MICac: MIC of the antibiotic in the combination ([8]; unit not given): 8 | MICa: MIC of the antibiotic [9, 16]: 16 | MICac: MIC of the antibiotic in the combination ([9]; unit not given): 8 | MICa: MIC of the antibiotic [10, 16]: 8 | MICac: MIC of the antibiotic in the combination ([10]; unit not given): 4 | MIC ([14]; read-out: Antibiotic sensibility (MIC) of clinical P. aeruginosa isolate AUMC-Pa-1, strain AUMC-Pa-1): 32 µM | MIC ([14]; read-out: Antibiotic sensibility (MIC) of clinical P. aeruginosa isolate AUMC-Pa-2, strain AUMC-Pa-2): 4 µM | MIC ([14]; read-out: Antibiotic sensibility (MIC) of clinical P. aeruginosa isolate AUMC-Pa-3, strain AUMC-Pa-3): 16 µM | MIC ([14]; read-out: Antibiotic sensibility (MIC) of clinical P. aeruginosa isolate AUMC-Pa-4, strain AUMC-Pa-4): 32 µM | MIC ([14]; read-out: Antibiotic sensibility (MIC) of clinical P. aeruginosa isolate AUMC-Pa-5, strain AUMC-Pa-5): 16 µM | MIC ([14]; read-out: Antibiotic sensibility (MIC) of clinical P. aeruginosa isolate AUMC-Pa-6, strain AUMC-Pa-6): 16 µM | MIC ([14]; read-out: Antibiotic sensibility (MIC) of clinical P. aeruginosa isolate HM-214, strain HM-214): 16 µM | MIC ([14]; read-out: Antibiotic sensibility (MIC) of clinical P. aeruginosa isolate NR-31040, strain NR-31040): 4 µM | MIC ([14]; read-out: Antibiotic sensibility (MIC) of clinical P. aeruginosa isolate NR-31041, strain NR-31041): 64 µM
SMILES: C[C@H]1[C@H](NC(=O)/C(=N\OC(C)(C)C(=O)O)c2csc(N)n2)C(=O)N1S(=O)(=O)O [Aztreonam]
FICI [1, 15]: 0.094 | FICI [2, 15]: 0.156 | FICI [3]: 0.563 | FICI [4]: 0.563 | FICI ([5]; antibiotic + 2 μM D-11): 0.188 | FICI ([5]; antibiotic + 4 μM D-11): 0.156 | FICI [6]: 0.625 | FICI [7, 15]: 0.281 | FICI [8]: 0.188 | FICI [9, 15]: 0.531 | FICI [10]: 0.563 | FICI [11]: 0.531 | FICI [12]: 0.094 | FICI [13]: 1.063

MICac: MIC of the antibiotic in the combination ([1]; unit not given): 8 | MICac: MIC of the antibiotic in the combination ([2]; unit not given): 32 | MICac: MIC of the antibiotic in the combination ([3]; unit not given): 32 | MICac: MIC of the antibiotic in the combination ([4]; unit not given): 32 | MICac: MIC of the antibiotic in the combination ([6]; unit not given): 8 | MICac: MIC of the antibiotic in the combination ([7]; unit not given): 32 | MICac: MIC of the antibiotic in the combination ([8]; unit not given): 16 | MICac: MIC of the antibiotic in the combination ([9]; unit not given): 32 | MICac: MIC of the antibiotic in the combination ([10]; unit not given): 16
SMILES: CC[C@H]1OC(=O)[C@H](C)[C@@H](O[C@H]2C[C@@](C)(OC)[C@@H](O)[C@H](C)O2)[C@H](C)[C@@H](O[C@@H]2O[C@H](C)C[C@H](N(C)C)[C@H]2O)[C@](C)(O)C[C@@H](C)C(=O)[C@H](C)[C@@H](O)[C@]1(C)O [Erythromycin]
FICI [3]: 0.313 | FICI [4]: 0.313 | FICI [6]: 0.188 | FICI [8]: 0.188 | FICI [10]: 0.188 | FICI [13]: 0.313
